Measurements as given in the NIST ThermoML archive (doi:10.1021/je034180e).

Conditions: Liquid

CC(C)C(=O)O [2-methylpropanoic acid]
Conditions	vapor or sublimation pressure [kPa]
375.21 K	14.55
382.14 K	19.58
391.77 K	29.65
399.43 K	39.72
405.44 K	49.79
410.75 K	59.85
415.51 K	69.92
419.77 K	79.99
423.36 K	90.07
424.86 K	95.1
426.16 K	100.59

CC(C)CC(=O)O [3-methylbutanoic acid]
Conditions	vapor or sublimation pressure [kPa]
396.05 K	14.56
402.9 K	19.59
412.87 K	29.65
420.7 K	39.72
427.18 K	49.78
432.62 K	59.86
437.44 K	69.92
441.6 K	79.99
445.16 K	90.07
446.6 K	95.1
447.92 K	100.08

CCCC(=O)O [butanoic acid]
Conditions	vapor or sublimation pressure [kPa]
383.55 K	14.56
390.87 K	19.58
401.32 K	29.65
409 K	39.72
415 K	49.79
420.22 K	59.86
424.81 K	69.92
428.96 K	79.99
432.61 K	90.07
434.51 K	95.1
436.05 K	100.04

CCCCCCC(=O)O [heptanoic acid]
Conditions	vapor or sublimation pressure [kPa]
413.48 K	4.7
426.48 K	8.63
435.07 K	12.56
441.33 K	16.57
446.4 K	20.63
451 K	24.65
453.8 K	27.67

CCCCCC(=O)O [hexanoic acid]
Conditions	vapor or sublimation pressure [kPa]
413.4 K	9.52
422.88 K	14.56
429.92 K	19.59
435.62 K	24.63
440.03 K	29.64
444.26 K	34.68
447.88 K	39.72
451.43 K	44.75

CCCCC(=O)O [pentanoic acid]
Conditions	vapor or sublimation pressure [kPa]
403.15 K	14.56
410.71 K	19.59
417.07 K	24.63
422.19 K	29.65
430.08 K	39.72
436.48 K	49.78
441.89 K	59.85
446.45 K	69.92
448.48 K	74.96
450.35 K	79.99
451.92 K	85.03

CCC(=O)O [propanoic acid]
Conditions	vapor or sublimation pressure [kPa]
361.52 K	14.56
368.37 K	19.58
378.95 K	29.65
386.74 K	39.73
392.93 K	49.79
398.09 K	59.86
402.65 K	69.92
406.8 K	79.99
410.33 K	90.07
411.97 K	95.1
413.74 K	101.21
